Reference: the NIST ThermoML archive (doi:10.1021/je050416y)
Numbers after ± are expanded uncertainties.

Assay: xn = mol fraction of the nth substance listed
Conditions: 101 kPa, Liquid; for mass density: Vibrating tube method

CC(C)CCO [3-methylbutan-1-ol] + CCO
Conditions | kinematic viscosity, 293.15 K [m2/s] | kinematic viscosity, 298.15 K [m2/s] | kinematic viscosity, 303.15 K [m2/s] | mass density, 293.15 K [kg/m3] | mass density, 298.15 K [kg/m3] | mass density, 303.15 K [kg/m3] | mass density, 308.15 K [kg/m3]
x1 = 0.0268 | – | – | – | 790.5 ± 1 | 786.2 ± 1 | 781.8 ± 1 | 777.5 ± 1
x1 = 0.0549 | – | – | – | 791.3 ± 1 | 787 ± 1 | 782.7 ± 1 | 778.4 ± 1
x1 = 0.0845 | – | – | – | 792.1 ± 1 | 787.9 ± 1 | 783.7 ± 1 | 779.4 ± 1
x1 = 0.0915 | 1.55e-06 ± 7.3e-08 | 1.42e-06 ± 6.8e-08 | 1.27e-06 ± 6.1e-08 | – | – | – | –
x1 = 0.1156 | – | – | – | 792.9 ± 1 | 788.8 ± 1 | 784.6 ± 1 | 780.4 ± 1
x1 = 0.1484 | – | – | – | 793.8 ± 1 | 789.7 ± 1 | 785.5 ± 1 | 781.4 ± 1
x1 = 0.1753 | 1.61e-06 ± 7.6e-08 | 1.48e-06 ± 7e-08 | 1.32e-06 ± 6.3e-08 | – | – | – | –
x1 = 0.183 | – | – | – | 794.7 ± 1 | 790.6 ± 1 | 786.5 ± 1 | 782.4 ± 1
x1 = 0.2524 | 1.68e-06 ± 7.8e-08 | 1.54e-06 ± 7.3e-08 | 1.38e-06 ± 6.6e-08 | – | – | – | –
x1 = 0.2584 | – | – | – | 796.6 ± 1 | 792.5 ± 1 | 788.5 ± 1 | 784.4 ± 1
x1 = 0.3235 | 1.75e-06 ± 8.1e-08 | 1.61e-06 ± 7.5e-08 | 1.45e-06 ± 6.9e-08 | – | – | – | –
x1 = 0.3433 | – | – | – | 798.5 ± 1 | 794.5 ± 1 | 790.5 ± 1 | 786.5 ± 1
x1 = 0.3894 | 1.83e-06 ± 8.5e-08 | 1.69e-06 ± 7.9e-08 | 1.52e-06 ± 7.2e-08 | – | – | – | –
x1 = 0.4395 | – | – | – | 800.4 ± 1 | 796.5 ± 1 | 792.5 ± 1 | 788.6 ± 1
x1 = 0.4505 | 1.93e-06 ± 8.9e-08 | 1.78e-06 ± 8.3e-08 | 1.61e-06 ± 7.5e-08 | – | – | – | –
x1 = 0.5495 | – | – | – | 802.4 ± 1 | 798.5 ± 1 | 794.6 ± 1 | 790.7 ± 1
x1 = 0.5605 | 2.19e-06 ± 1e-07 | 2.01e-06 ± 9.2e-08 | 1.81e-06 ± 8.4e-08 | – | – | – | –
x1 = 0.6567 | 2.51e-06 ± 1.1e-07 | 2.28e-06 ± 1e-07 | 2.05e-06 ± 9.4e-08 | – | – | – | –
x1 = 0.6765 | – | – | – | 804.3 ± 1 | 800.5 ± 1 | 796.7 ± 1 | 792.9 ± 1
x1 = 0.7416 | 2.89e-06 ± 1.3e-07 | 2.6e-06 ± 1.2e-07 | 2.33e-06 ± 1.1e-07 | – | – | – | –
x1 = 0.817 | 3.31e-06 ± 1.5e-07 | 2.96e-06 ± 1.3e-07 | 2.64e-06 ± 1.2e-07 | – | – | – | –
x1 = 0.8247 | – | – | – | 806.3 ± 1 | 802.6 ± 1 | 798.7 ± 1 | 795 ± 1
x1 = 0.8844 | 3.8e-06 ± 1.7e-07 | 3.37e-06 ± 1.5e-07 | 2.99e-06 ± 1.3e-07 | – | – | – | –
x1 = 0.9451 | 4.35e-06 ± 1.9e-07 | 3.84e-06 ± 1.7e-07 | 3.38e-06 ± 1.5e-07 | – | – | – | –
x1 = 1 | 5e-06 ± 2.2e-07 | 4.35e-06 ± 1.9e-07 | 3.81e-06 ± 1.7e-07 | 808.3 ± 1 | 804.6 ± 1 | 800.8 ± 1 | 797.1 ± 1
